Measurements as given in ChEMBL document CHEMBL1201862, “PubChem BioAssay data set” (2004).
Values belong to the compound of their own block, whether it stands above or below them. The source made the active and inactive calls.

How the values were obtained:
CAAX prenyl protease 2 = CAAX prenyl protease 2 (Homo sapiens, UniProt Q9Y256); experiment: human Rce1 protease inhibitors, dose response, biochemical, yeast membranes, quenched-peptide fluorescence, cherry-pick (AID 588849)
Trypsin = Trypsin (Sus scrofa, UniProt P00761); experiment: porcine trypsin inhibitors, dose response, selectivity assay for Rce1 protease inhibitor project, biochemical, quenched peptide fluorescence, cherry-pick (AID 488789)
[1] = target: Voltage-gated inwardly rectifying potassium channel KCNH2 (Homo sapiens, UniProt Q12809); settings: Potency;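 note: confirmatory quantitative high-throughput screen measuring inhibition of hERG channel activity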
BJ [2] = experiment: cytotoxicity toward BJ-TERT fibroblasts, dose response, cell-based, RAS-independent, luminescence (AID 1933); format: functional; settings: Homo sapiens
[3] = cytotoxicity toward DRD oncogenic fibroblasts, dose response, cell-based, non-viral oncogenic, luminescence (AID 1934); format: functional; settings: Homo sapiens
[4] = target: T1, Heat shock factor protein 1 (Mus musculus, UniProt P38532); experiment: HSF1 potentiators in luciferase reporter cells, confirmation, cell-based, NIH3T3, luminescence, dose retest (AID 435004); format: functional;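 note: stress induced by proteasome inhibitor MG132 added 30 min after compound; luciferase reporter driven by HSF1 response element in NIH3T3 cells; actives raise luminescence as potentiators of the MG132 stress response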
T1 sequence (P38532 whole entry): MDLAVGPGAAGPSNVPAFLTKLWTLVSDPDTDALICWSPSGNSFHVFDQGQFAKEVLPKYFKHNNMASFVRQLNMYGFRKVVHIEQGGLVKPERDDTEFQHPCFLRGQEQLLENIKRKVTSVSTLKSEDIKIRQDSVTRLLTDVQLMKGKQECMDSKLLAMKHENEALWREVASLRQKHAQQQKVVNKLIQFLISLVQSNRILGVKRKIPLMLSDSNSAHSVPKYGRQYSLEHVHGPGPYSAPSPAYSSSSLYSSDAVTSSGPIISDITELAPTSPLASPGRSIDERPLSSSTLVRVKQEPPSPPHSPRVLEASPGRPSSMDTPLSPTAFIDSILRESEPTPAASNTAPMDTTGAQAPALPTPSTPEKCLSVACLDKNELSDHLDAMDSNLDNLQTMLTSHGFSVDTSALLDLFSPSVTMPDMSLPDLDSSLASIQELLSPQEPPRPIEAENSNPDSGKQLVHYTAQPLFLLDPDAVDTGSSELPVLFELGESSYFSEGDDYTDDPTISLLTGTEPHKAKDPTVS

BJ [5] = experiment: cells; format: functional, cell-based; settings: Homo sapiens
HEK293 [6] = experiment: cells; settings: Homo sapiens
[7] = target: T2, Microphthalmia-associated transcription factor (Homo sapiens, UniProt O75030); experiment: TRPM1 promoter luciferase signal decrease, dose response, MITF inhibitor project, cell-based, SK-MEL-5, cherry-picked, set 3 (AID 493073); format: functional
T2 sequence (O75030 whole entry): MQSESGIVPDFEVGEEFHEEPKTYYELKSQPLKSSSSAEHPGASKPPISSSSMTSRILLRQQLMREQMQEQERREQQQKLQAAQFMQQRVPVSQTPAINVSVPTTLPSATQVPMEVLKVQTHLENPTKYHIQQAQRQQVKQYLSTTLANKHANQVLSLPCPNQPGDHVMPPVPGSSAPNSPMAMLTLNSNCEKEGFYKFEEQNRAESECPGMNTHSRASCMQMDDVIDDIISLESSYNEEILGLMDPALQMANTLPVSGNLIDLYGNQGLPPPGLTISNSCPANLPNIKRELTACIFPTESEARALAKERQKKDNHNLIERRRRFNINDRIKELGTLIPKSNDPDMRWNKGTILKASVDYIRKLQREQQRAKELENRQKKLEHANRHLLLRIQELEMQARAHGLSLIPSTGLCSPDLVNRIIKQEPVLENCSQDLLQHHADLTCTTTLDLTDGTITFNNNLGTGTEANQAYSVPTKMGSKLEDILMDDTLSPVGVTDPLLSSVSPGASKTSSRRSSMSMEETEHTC

BJ [8] = experiment: cytotoxicity toward BJ-TERT-LT-ST fibroblasts, dose response, cell-based, RAS-independent, luminescence (AID 1935); format: functional; settings: Homo sapiens;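 note: BJ fibroblasts immortalized with TERT plus LT and ST oncogenes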
HEK293 [9] = experiment: cells; settings: Homo sapiens; remark: listed apart in the source
HeLa = experiment: HeLa cell cytotoxicity, dose response, cytotoxicity control for MITF activator project, CellTiter-Glo luminescence, cherry-pick samples (AID 540259); format: functional, cell-based; settings: Homo sapiens
[10] = target: Nucleotide-binding oligomerization domain-containing protein 1 (Homo sapiens, UniProt Q9Y239); experiment: NOD1 signaling inhibitors, SAR follow-up, revised (AID 2333); format: functional
Tumor necrosis factor = Tumor necrosis factor (Homo sapiens, UniProt P01375); experiment: TNFa-triggered NF-kB activation inhibitors, SAR follow-up, cell-based, revised (AID 2337); format: functional
HEK293 [11] = experiment: cells; settings: Homo sapiens; remark: listed apart in the source
Cytochrome P450 2D6 = Cytochrome P450 2D6 (Homo sapiens, UniProt P10635);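 note: CYP2D6 member of a cytochrome P450 panel assay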
[12] = target: T3, Sentrin-specific protease 8 (Homo sapiens, UniProt Q96LD8); experiment: SENP8 protease inhibitors, SAR follow-up, biochemical, luminescence (AID 504501); format: functional
T3 sequence (Q96LD8 whole entry): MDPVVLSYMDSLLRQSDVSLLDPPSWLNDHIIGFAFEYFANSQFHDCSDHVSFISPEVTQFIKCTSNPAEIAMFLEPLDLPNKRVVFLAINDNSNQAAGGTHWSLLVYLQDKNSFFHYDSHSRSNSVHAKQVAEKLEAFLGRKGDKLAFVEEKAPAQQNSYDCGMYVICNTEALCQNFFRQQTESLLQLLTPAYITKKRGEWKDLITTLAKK

Caspase-3 = target: T4, Caspase-3 (Homo sapiens, UniProt P42574); experiment: SAR Analysis of small molecule inhibitors of Sentrin-specific proteases (SENPs) using a Caspase-3 Selectivity assay. [Related pubchem assays (depositor defined):AID2540, AID2599, AID434973, AID489001]; format: functional
T4 sequence (P42574 whole entry): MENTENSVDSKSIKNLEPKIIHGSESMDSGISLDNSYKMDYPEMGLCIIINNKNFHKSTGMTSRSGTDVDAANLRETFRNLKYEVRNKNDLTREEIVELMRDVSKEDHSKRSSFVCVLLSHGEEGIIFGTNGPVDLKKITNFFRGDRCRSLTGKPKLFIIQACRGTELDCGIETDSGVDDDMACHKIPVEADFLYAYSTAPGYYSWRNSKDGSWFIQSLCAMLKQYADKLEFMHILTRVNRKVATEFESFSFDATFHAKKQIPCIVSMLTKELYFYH

[13] = target: T5, Sentrin-specific protease 6 (Homo sapiens, UniProt Q9GZR1); experiment: SAR Analysis of small molecule inhibitors of Sentrin-specific protease 6 (SENP6) using a Luminescent assay. [Related pubchem assays (depositor defined):AID2582, AID2599]; format: functional
T5 sequence (Q9GZR1 whole entry): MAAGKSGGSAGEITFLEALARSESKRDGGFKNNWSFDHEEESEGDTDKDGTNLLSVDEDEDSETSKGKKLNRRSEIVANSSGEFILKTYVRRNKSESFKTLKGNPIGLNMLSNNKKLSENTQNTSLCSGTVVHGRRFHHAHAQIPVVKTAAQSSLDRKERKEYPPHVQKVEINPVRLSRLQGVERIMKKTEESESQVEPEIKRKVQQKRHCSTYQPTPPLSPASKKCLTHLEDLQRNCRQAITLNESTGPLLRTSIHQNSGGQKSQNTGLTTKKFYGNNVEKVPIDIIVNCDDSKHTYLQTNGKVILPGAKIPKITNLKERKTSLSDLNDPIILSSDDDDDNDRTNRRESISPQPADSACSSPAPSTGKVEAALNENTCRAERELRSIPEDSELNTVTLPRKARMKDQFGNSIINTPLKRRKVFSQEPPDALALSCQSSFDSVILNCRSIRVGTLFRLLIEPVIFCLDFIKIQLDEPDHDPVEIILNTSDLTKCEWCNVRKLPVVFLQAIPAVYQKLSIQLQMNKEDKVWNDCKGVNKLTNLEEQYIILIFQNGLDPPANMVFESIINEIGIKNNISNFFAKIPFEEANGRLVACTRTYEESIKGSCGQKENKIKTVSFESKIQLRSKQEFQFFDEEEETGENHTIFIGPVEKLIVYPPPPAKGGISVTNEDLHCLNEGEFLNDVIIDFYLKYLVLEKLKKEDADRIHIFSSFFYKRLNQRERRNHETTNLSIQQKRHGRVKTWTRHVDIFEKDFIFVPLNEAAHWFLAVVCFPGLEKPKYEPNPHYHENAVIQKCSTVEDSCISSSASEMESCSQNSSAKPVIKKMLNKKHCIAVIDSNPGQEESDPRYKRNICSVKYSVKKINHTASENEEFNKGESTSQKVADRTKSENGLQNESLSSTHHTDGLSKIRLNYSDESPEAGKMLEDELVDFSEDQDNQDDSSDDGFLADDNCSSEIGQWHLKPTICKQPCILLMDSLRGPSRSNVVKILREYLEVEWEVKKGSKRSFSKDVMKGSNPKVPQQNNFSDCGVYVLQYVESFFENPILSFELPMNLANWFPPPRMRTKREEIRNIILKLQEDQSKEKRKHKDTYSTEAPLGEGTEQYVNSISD

[14] = target: T6, Sentrin-specific protease 7 (Homo sapiens, UniProt Q9BQF6); experiment: SENP7 protease inhibitors, SAR follow-up, biochemical, luminescence (AID 504497); format: functional
T6 sequence (Q9BQF6 whole entry): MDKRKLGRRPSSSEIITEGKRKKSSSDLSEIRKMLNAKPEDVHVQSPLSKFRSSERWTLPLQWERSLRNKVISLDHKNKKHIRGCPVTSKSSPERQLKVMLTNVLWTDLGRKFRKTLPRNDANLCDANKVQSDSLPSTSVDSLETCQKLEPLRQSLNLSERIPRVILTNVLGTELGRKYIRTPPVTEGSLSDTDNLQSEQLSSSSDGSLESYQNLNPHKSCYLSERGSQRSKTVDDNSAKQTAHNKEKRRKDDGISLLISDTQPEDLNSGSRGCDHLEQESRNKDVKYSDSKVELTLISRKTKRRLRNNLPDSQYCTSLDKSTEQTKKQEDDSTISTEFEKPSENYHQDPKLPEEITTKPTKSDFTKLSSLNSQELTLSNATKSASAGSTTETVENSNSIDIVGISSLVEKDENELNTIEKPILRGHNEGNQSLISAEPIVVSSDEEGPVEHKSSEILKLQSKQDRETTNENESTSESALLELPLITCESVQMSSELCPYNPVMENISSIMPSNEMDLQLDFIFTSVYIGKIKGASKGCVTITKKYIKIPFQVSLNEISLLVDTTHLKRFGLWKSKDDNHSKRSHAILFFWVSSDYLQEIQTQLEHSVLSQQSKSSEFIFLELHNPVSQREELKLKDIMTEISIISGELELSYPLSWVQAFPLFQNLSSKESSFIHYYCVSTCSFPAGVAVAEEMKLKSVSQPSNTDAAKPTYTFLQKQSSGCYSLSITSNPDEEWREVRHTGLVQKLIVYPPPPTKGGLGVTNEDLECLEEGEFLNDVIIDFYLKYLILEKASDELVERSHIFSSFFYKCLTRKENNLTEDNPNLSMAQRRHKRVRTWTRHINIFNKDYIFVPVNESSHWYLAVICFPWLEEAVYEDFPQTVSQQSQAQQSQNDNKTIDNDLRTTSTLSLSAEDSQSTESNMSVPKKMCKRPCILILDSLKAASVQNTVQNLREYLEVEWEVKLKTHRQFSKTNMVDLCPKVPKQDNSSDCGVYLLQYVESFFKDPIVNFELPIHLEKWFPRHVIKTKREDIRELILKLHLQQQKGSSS

Sequence of CAAX prenyl protease 2 (Q9Y256 whole entry): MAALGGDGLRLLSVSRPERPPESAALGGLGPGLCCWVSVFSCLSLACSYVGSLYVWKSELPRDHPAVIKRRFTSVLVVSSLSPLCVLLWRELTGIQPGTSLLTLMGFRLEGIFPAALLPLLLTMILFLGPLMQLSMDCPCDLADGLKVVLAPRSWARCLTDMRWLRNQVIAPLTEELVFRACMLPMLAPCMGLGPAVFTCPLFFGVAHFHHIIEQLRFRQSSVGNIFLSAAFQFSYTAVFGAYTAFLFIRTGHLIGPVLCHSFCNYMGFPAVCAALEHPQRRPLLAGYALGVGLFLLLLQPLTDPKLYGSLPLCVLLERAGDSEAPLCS
Sequence of Trypsin (P00761 whole entry): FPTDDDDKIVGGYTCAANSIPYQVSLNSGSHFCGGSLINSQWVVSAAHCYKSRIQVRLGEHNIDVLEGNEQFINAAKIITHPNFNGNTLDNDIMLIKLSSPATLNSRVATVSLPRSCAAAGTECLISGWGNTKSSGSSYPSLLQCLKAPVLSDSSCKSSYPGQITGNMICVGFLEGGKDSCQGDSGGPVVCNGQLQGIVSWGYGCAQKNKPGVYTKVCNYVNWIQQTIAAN
Sequence of Tumor necrosis factor (P01375 whole entry): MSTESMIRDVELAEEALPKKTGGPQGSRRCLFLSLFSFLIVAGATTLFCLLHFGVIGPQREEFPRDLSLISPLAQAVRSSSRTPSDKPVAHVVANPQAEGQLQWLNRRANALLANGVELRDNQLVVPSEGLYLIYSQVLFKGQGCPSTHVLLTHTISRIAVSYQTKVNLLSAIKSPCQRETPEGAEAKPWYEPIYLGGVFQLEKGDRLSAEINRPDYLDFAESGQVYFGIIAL
Sequence of Voltage-gated inwardly rectifying potassium channel KCNH2 (Q12809 whole entry): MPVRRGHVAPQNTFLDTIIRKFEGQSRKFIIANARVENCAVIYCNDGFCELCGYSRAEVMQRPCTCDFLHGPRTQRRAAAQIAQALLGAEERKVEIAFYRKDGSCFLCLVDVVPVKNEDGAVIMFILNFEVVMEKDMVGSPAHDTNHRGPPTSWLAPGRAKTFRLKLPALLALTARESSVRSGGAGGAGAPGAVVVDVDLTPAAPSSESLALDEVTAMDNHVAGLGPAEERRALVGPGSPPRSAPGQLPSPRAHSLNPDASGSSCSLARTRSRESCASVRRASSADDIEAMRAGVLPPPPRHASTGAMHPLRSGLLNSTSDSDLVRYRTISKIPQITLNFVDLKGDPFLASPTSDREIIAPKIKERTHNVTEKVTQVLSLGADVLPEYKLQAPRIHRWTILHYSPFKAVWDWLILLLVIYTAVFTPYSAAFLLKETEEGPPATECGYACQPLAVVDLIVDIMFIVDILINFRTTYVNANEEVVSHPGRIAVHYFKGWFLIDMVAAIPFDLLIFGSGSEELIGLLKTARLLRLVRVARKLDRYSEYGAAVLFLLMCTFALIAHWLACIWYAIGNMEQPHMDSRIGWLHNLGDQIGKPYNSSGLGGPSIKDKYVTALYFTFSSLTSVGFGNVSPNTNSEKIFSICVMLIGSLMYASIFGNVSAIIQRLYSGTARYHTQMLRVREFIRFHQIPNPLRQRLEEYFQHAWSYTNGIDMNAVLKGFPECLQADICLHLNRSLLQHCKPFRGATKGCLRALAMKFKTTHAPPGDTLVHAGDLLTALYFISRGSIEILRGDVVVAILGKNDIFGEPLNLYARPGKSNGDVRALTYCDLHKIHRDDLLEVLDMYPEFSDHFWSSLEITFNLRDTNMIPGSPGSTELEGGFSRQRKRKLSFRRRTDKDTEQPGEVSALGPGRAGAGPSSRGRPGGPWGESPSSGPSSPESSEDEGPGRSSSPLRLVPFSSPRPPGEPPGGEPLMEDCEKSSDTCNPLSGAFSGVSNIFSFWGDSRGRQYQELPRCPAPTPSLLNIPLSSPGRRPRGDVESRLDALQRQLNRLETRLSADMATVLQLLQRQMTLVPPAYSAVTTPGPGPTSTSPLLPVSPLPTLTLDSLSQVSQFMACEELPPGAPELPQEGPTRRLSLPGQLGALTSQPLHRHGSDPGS
Sequence of Cytochrome P450 2D6 (P10635 whole entry): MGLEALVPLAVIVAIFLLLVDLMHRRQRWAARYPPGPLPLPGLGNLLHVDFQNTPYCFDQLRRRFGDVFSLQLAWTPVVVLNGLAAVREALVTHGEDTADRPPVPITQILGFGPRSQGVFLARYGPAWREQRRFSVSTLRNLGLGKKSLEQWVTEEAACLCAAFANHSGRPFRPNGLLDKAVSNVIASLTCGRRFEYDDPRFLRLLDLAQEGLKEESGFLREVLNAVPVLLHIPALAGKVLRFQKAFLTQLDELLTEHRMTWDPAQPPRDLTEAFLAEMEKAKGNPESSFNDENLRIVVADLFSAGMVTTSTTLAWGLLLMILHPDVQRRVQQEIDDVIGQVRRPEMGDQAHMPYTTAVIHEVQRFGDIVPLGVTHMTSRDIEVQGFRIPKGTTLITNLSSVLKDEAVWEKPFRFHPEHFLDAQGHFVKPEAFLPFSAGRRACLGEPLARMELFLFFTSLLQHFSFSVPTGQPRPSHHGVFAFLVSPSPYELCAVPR
Sequence of Nucleotide-binding oligomerization domain-containing protein 1 (Q9Y239 whole entry, the tested form may be a part): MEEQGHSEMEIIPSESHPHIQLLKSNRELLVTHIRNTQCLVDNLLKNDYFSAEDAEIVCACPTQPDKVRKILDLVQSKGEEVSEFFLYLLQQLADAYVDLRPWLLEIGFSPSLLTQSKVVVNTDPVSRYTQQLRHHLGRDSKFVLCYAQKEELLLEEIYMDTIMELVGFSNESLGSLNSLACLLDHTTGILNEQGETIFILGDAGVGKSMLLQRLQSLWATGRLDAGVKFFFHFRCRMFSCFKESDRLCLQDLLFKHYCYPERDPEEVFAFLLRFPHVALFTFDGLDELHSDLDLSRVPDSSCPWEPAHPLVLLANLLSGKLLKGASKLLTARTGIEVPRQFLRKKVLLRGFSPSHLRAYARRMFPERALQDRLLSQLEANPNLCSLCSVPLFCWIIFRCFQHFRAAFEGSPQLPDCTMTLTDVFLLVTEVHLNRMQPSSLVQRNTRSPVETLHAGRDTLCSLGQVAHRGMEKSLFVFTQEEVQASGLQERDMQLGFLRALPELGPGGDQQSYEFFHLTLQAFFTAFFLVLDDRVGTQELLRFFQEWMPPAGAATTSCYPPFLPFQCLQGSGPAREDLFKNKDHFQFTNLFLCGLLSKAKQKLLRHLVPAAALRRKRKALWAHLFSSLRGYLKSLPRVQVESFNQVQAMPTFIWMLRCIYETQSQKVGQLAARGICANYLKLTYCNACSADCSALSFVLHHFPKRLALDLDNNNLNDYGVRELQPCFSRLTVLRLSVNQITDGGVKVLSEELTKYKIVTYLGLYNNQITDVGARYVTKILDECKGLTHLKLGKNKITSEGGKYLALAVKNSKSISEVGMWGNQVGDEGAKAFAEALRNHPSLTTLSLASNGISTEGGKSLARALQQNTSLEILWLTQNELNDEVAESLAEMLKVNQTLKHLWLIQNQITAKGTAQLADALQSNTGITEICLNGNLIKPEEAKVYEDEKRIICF

AC50 (CAAX prenyl protease 2): 2.48 µM (active)
AC50 (Trypsin): 5.25 µM (active)
SMILES: COc1ccccc1Oc1c(C)oc2c(CN3CCN(CCO)CC3)c(O)ccc2c1=O

SMILES: N=C(N)SCCc1cccc(CCSC(=N)N)c1
AC50 [1]: 20 µM (inconclusive)

SMILES: CN(C)c1nc(C=C(C#N)C#N)c(Cl)n1-c1ccc(F)cc1
EC50 (BJ [2]): 4.83 µM (active)
EC50 [3]: 4.24 µM (active)
EC50 [4]: 27.8 µM (active)
EC50 (BJ [5]): 5 µM (active)
EC50 (HEK293 [6]): > 59.6 µM (inactive)
AC50 [7]: 3.92 µM (active)
EC50 (BJ [8]): 5.12 µM (inconclusive)
EC50 (HEK293 [9]): > 59.6 µM (inactive)

SMILES: CC(c1ccccc1)c1nnc(NC(=O)Nc2ccccc2F)s1 (stereo not given)
AC50 (HeLa): 52.5 µM (active)

SMILES: Cc1ccc(N2CCN(S(=O)(=O)c3ccc4c(c3)CC(C)N4C(=O)C3CC3)CC2)cc1 (stereo not given)
IC50 [10]: > 20 µM (inactive)
IC50 (Tumor necrosis factor): > 20 µM (inactive)
IC50 (HEK293 [11]): > 20 µM (inactive)

AC50 (Cytochrome P450 2D6): inconclusive
SMILES: NCCCc1c(-c2ccccc2)nc(N)[nH]c1=O

IC50 (Caspase-3): > 99 µM (inactive)
IC50 [13]: > 99 µM (inactive)
IC50 [14]: 71.3 µM (active)
SMILES: Nc1ccccc1-c1noc(/C=C/c2ccccc2Cl)n1
IC50 [12]: > 99 µM (inactive)
